Laboratory results: US12195482B1 (Arcus Biosciences, Inc., priority 2022, dated 2025)

Assays:
[1] = target: T1, recombinant human TYRO3 (Homo sapiens, UniProt Q06418); test: Biochemical potency, HTRF KinEASE-TK kinase assay; conditions: 1 nM TYRO3, 700 μM ATP
T1 construct: purchased Invitrogen
T1 sequence (Q06418 41-890): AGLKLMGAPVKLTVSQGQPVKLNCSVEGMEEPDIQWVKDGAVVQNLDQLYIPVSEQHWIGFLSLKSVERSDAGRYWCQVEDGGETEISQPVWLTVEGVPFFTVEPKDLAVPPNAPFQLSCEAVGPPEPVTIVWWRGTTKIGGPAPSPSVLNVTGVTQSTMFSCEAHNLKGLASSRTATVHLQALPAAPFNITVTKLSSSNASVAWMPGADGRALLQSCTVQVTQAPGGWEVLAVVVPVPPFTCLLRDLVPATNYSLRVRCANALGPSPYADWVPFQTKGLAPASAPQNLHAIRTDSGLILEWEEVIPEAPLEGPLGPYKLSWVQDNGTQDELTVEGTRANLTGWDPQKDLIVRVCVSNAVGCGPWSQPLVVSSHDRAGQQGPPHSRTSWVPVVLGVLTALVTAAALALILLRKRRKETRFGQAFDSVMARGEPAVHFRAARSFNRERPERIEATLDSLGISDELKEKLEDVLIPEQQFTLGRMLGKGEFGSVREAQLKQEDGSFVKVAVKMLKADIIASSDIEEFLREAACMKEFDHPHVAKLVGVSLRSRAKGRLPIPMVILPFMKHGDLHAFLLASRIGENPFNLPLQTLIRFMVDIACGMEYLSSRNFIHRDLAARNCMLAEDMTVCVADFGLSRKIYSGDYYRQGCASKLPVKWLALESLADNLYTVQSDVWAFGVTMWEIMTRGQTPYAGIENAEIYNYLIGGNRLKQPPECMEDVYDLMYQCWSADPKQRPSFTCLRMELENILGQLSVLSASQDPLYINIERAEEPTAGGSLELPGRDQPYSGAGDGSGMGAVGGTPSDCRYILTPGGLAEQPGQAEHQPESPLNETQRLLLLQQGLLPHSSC
Summary of the method: (§1)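 Enzyme (AXL 5 nM; TYRO3 or MER 1 nM final) was preincubated with compound for 1 h at RT, then reacted for 2 h at RT with 800 nM biotinylated TK substrate and 700 µM ATP in HEPES pH 7.4, MgCl2, DTT, BSA, 1% DMSO. Percent activity came from the HTRF 665/620 ratio.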

[2] = target: T2, recombinant human MER (Homo sapiens, UniProt Q12866); test: Biochemical potency, HTRF KinEASE-TK kinase assay; conditions: 1 nM MER, 700 μM ATP
T2 construct: purchased Invitrogen
T2 sequence (Q12866 21-999): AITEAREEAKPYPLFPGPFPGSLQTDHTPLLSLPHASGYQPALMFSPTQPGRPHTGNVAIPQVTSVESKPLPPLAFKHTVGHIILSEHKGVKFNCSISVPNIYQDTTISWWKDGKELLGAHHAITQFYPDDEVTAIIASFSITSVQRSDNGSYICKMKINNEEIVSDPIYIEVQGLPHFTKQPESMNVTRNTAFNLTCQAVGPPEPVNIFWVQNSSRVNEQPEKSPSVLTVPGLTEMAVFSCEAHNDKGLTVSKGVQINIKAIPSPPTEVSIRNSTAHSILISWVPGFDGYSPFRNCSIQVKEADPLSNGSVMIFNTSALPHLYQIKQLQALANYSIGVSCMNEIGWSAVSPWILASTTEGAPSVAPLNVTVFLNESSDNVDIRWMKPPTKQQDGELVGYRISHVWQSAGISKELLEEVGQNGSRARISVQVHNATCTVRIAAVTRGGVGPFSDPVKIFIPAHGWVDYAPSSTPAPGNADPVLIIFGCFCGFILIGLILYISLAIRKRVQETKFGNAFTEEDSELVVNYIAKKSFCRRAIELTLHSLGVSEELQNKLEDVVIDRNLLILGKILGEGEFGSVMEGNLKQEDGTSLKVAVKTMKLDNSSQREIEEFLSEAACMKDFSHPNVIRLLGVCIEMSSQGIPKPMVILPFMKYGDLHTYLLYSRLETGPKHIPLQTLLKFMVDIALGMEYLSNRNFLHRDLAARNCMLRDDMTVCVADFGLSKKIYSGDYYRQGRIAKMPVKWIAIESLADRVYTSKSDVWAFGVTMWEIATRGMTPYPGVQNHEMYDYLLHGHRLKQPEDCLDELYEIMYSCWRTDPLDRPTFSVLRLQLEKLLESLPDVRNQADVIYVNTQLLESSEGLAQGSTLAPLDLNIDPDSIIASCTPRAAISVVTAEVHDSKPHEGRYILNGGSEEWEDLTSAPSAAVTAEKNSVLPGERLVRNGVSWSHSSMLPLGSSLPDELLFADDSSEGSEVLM
Summary of the method: as §1

| SMILES | IC50 [1] [nM] | IC50 [2] [nM] |
| --- | --- | --- |
| c1cnc(-c2ccc(-c3n[nH]c4ncc(-c5ccc6c(c5)CC[C@@H](N5C7COCC5C7)CC6)cc34)cc2)c(O[C@@H]2CCOC2)c1 [Example 104, 6-[(7S)-2-[3-(4-{3-[(3R)—Oxolan-3-yloxy]pyridin-2-yl}phenyl)-1H-pyrazolo[3,4-b]pyridin-5-yl]-6,7,8,9-tetrahydro-5H-benzo[7]annulen-7-yl]-3-oxa-6-azabicyclo[3.1.1]heptane] | 100 to 1000 | 100 to 1000 |
| c1cnc(-c2ccc(-c3c[nH]c4ncc(-c5ccc6c(c5)CC[C@@H](N5C7COCC5C7)CC6)cc34)cc2)c(C2CC2)c1 [Example 178, 6-[(7S)-2-{3-[4-(3-Cyclopropylpyridin-2-yl)phenyl]-1H-pyrrolo[2,3-b]pyridin-5-yl}-6,7,8,9-tetrahydro-5H-benzo[7]annulen-7-yl]-3-oxa-6-azabicyclo[3.1.1]heptane] | 100 to 1000 | 100 to 1000 |
| FC(F)Oc1cccnc1-c1ccc(-c2n[nH]c3ncc(-c4ccc5c(c4)CC[C@@H](N4C6COCC4C6)CC5)cc23)cc1 [Example 99, 6-[(7S)-2-(3-{4-[3-(Difluoromethoxy)pyridin-2-yl]phenyl}-1H-pyrazolo[3,4-b]pyridin-5-yl)-6,7,8,9-tetrahydro-5H-benzo[7]annulen-7-yl]-3-oxa-6-azabicyclo[3.1.1]heptane] | 100 to 1000 | 100 to 1000 |
| Cc1cc(F)cnc1-c1ccc(-c2c[nH]c3ncc(-c4ccc5c(c4)CC[C@@H](N4C6COCC4C6)CC5)cc23)cc1 [Example 29, 6-[(7S)-3-[3-[4-(5-Fluoro-3-methylpyridin-2-yl)phenyl]-1H-pyrrolo[2,3-b]pyridin-5-yl]-6,7,8,9-tetrahydro-5H-benzo[7]annulen-7-yl]-3-oxa-6-azabicyclo[3.1.1]heptane] | 100 to 1000 | 100 to 1000 |
| CC(C)(O)c1ccccc1-c1ccc(-c2c[nH]c3ncc(-c4ccc5c(c4)CC[C@@H](N4C6COCC4C6)CC5)cc23)cn1 [Example 114, 2-[2-(5-{5-[(7S)-7-{3-Oxa-6-azabicyclo[3.1.1]heptan-6-yl}-6,7,8,9-tetrahydro-5H-benzo[7]annulen-2-yl]-1H-pyrrolo[2,3-b]pyridin-3-yl}pyridin-2-yl)phenyl]propan-2-ol] | 100 to 1000 | 100 to 1000 |
| Cc1ccc(-c2ccc(-c3n[nH]c4ncc(-c5ccc6c(c5)CC[C@@H](N5C7COCC5C7)CC6)cc34)cc2)nc1 [Example 115, 6-[(7S)-2-{3-[4-(5-Methylpyridin-2-yl)phenyl]-1H-pyrazolo[3,4-b]pyridin-5-yl}-6,7,8,9-tetrahydro-5H-benzo[7]annulen-7-yl]-3-oxa-6-azabicyclo[3.1.1]heptane] | > 1000 | 100 to 1000 |
| CN(C)C(=O)c1cccnc1-c1ccc(-c2c[nH]c3ncc(-c4ccc5c(c4)CC[C@@H](N4C6COCC4C6)CC5)cc23)cc1 [Example 165, N,N-Dimethyl-2-(4-{5-[(7S)-7-{3-oxa-6-azabicyclo[3.1.1]heptan-6-yl}-6,7,8,9-tetrahydro-5H-benzo[7]annulen-2-yl]-1H-pyrrolo[2,3-b]pyridin-3-yl}phenyl)pyridine-3-carboxamide] | < 100 | 100 to 1000 |
| Cc1cccnc1-c1ccc(-c2n[nH]c3ncc(-c4ccc5c(c4)CC[C@@H](N[C@H]4CCCOC4)CC5)cc23)cc1 [Example 129, (3S)—N-[(7S)-2-{3-[4-(3-Methylpyridin-2-yl)phenyl]-1H-pyrazolo[3,4-b]pyridin-5-yl}-6,7,8,9-tetrahydro-5H-benzo[7]annulen-7-yl]oxan-3-amine] | < 100 | < 100 |

Results, then the molecule that gave them:

| IC50 [1] [nM] | IC50 [2] [nM] | SMILES |
| --- | --- | --- |
| < 100 | < 100 | C[C@H]1COC(=O)N1c1cccnc1-c1ccc(-c2n[nH]c3ncc(-c4ccc5c(c4)CC[C@@H](N4C6COCC4C6)CC5)cc23)cc1 [Example 125, (4S)-4-Methyl-3-[2-(4-{5-[(7S)-7-{3-oxa-6-azabicyclo[3.1.1]heptan-6-yl}-6,7,8,9-tetrahydro-5H-benzo[7]annulen-2-yl]-1H-pyrazolo[3,4-b]pyridin-3-yl}phenyl)pyridin-3-yl]-1,3-oxazolidin-2-one] |
| < 100 | < 100 | Cn1cnnc1-c1ccc(-c2n[nH]c3ncc(-c4ccc5c(c4)CC[C@@H](N4C6COCC4C6)CC5)cc23)cc1 [Example 169, 6-[(7S)-2-{3-[4-(4-Methyl-4H-1,2,4-triazol-3-yl)phenyl]-1H-pyrazolo[3,4-b]pyridin-5-yl}-6,7,8,9-tetrahydro-5H-benzo[7]annulen-7-yl]-3-oxa-6-azabicyclo[3.1.1]heptane] |
| < 100 | < 100 | C[C@@H]1COC(=O)N1c1cccnc1-c1ccc(-c2n[nH]c3ncc(-c4ccc5c(c4)CC[C@@H](N4C6COCC4C6)CC5)cc23)cc1 [Example 124, (4R)-4-Methyl-3-[2-(4-{5-[(7S)-7-{3-oxa-6-azabicyclo[3.1.1]heptan-6-yl}-6,7,8,9-tetrahydro-5H-benzo[7]annulen-2-yl]-1H-pyrazolo[3,4-b]pyridin-3-yl}phenyl)pyridin-3-yl]-1,3-oxazolidin-2-one] |
| < 100 | 100 to 1000 | COCCOc1cccnc1-c1ccc(-c2n[nH]c3ncc(-c4ccc5c(c4)CC[C@@H](N4C6COCC4C6)CC5)cc23)cc1 [Example 180, 6-[(7S)-2-(3-{4-[3-(2-Methoxyethoxy)pyridin-2-yl]phenyl}-1H-pyrazolo[3,4-b]pyridin-5-yl)-6,7,8,9-tetrahydro-5H-benzo[7]annulen-7-yl]-3-oxa-6-azabicyclo[3.1.1]heptane] |
| < 100 | 100 to 1000 | c1cnc(-c2ccc(-c3c[nH]c4ncc(-c5ccc6c(c5)CC[C@@H](N5C7COCC5C7)CC6)cc34)cc2)c(N2CCOCC2)c1 [Example 5, 6-[(7S)-2-(3-{4-[3-(Morpholin-4-yl)pyridin-2-yl]phenyl}-1H-pyrrolo[2,3-b]pyridin-5-yl)-6,7,8,9-tetrahydro-5H-benzo[7]annulen-7-yl]-3-oxa-6-azabicyclo[3.1.1]heptane] |
| < 100 | 100 to 1000 | CS(=O)(=O)c1cccnc1-c1ccc(-c2c[nH]c3ncc(-c4ccc5c(c4)CC[C@@H](N4C6COCC4C6)CC5)cc23)cc1 [Example 102, 6-[(7S)-2-{3-[4-(3-Methanesulfonylpyridin-2-yl)phenyl]-1H-pyrrolo[2,3-b]pyridin-5-yl}-6,7,8,9-tetrahydro-5H-benzo[7]annulen-7-yl]-3-oxa-6-azabicyclo[3.1.1]heptane] |
| < 100 | 100 to 1000 | Cc1ccc(C)c(-c2ccc(-c3n[nH]c4ncc(-c5ccc6c(c5)CC[C@@H](N5C7COCC5C7)CC6)cc34)cc2)n1 [Example 120, 6-[(7S)-2-{3-[4-(3,6-Dimethylpyridin-2-yl)phenyl]-1H-pyrazolo[3,4-b]pyridin-5-yl}-6,7,8,9-tetrahydro-5H-benzo[7]annulen-7-yl]-3-oxa-6-azabicyclo[3.1.1]heptane] |
| < 100 | < 100 | Cc1cccnc1-c1ccc(-c2n[nH]c3ncc(-c4ccc5c(c4)CC[C@@](C)(N4CCC[C@H]4C)CC5)cc23)cc1 [Example 163, 3-Methyl-2-(4-{5-[(7S)-7-methyl-7-[(2R)-2-methylpyrrolidin-1-yl]-6,7,8,9-tetrahydro-5H-benzo[7]annulen-2-yl]-2H-pyrazolo[3,4-b]pyridin-3-yl}phenyl)pyridine] |
